From patent publication US11384381B2, “Reaction accelerating agent” (Kikkoman Corporation, priority 2016, dated 2022)

Key:
CFP-DH4 (A1cOX) [1] = assay: Acceleration of HbA1c detection reaction with small amount of A1cOX (Example 5); assay type: biochemical; conditions: 0.04% (w/v) compound, 1.1 mg/ml CFP-DH4; for effect of accelerating the HbA1c detection reaction: versus not added; for Degree of progression of reaction (%) after 7.5 minutes / Degree of progression of reaction (%) after 10 minutes: HbA1c detection reaction, ΔA/ΔA100%; for Degree of progression of reaction (%) after 7.5 minutes: 2.5 minutes after addition of second reagent, not added: 51; for Degree of progression of reaction (%) after 10 minutes: 5 minutes after addition of second reagent, not added: 73
Protocol: Next, in this Example, the degree of acceleration of HbA1c detection reaction by the compound of the present invention was determined using a small amount of A1cOX.
A reagent for HbA1c measurement having the following composition was prepared, and the measurement of HbA1c was carried out using Bio Majesty JCA-BM1650 (manufactured by JEOL Ltd.).
(§1) Blood cells (10.4% HbA1c (NGSP value))
(§2) 30 mM MOPS-NaOH buffer solution, pH 6.5
0.2% (w/v) n-dodecyl-3-D-maltoside (manufactured by Dojindo Laboratories)
(§3) 10 U/ml peroxidase PEO-301 (Toyobo Co., Ltd.)
(§4) 0.023 mM 10-(carboxymethylaminocarbonyl)-3,7-bis(dimethylamino)phenothiazine sodium (DA-67, manufactured by Wako Pure Chemical Industries, Ltd.)
0.04% (w/v) of the compound of Comparative Example 2, any one compound of the present invention, or compound-free (Comparative Example 1) ion-exchange water as shown in Table 2
10 mM MOPS-NaOH buffer solution, pH 6.5
1.1 mg/ml CFP-DH4 (A cOX)
8 μl of the sample diluted 51-fold with ion-exchange water was added to 96 μl of the first reagent, and the mixture was incubated at 37° C. for 5 minutes. Then, 24 μl of the second reagent-B was added thereto, and the quantitative reaction of hydrogen peroxide resulting from the oxidation of the β-chain amino terminus of HbA1c was allowed to progress at 37° C. for 5 minutes. The absorbance ([…] and A751) of the reaction solution for light at wavelengths of 694 nm and 751 nm was measured over time for 10 minutes after the mixing of the diluted sample with the first reagent to determine the value of subtraction of A751 from A694, i.e., the value A694/751. Subsequently, ΔA was calculated by subtracting, from A694/751, the value of (104/128) times A694/751 4.8 minutes after the mixing of the diluted sample with the first reagent. Incidentally, […] after the mixing of the diluted sample with the first reagent represents the time immediately before the addition of the second reagent-B.
Next, ΔA calculated in this Example was divided by ΔA100% defined in Example 4 to calculate the degree of progression of HbA1c detection reaction. The degree of progression of HbA1c detection reaction 7.5 and 10 minutes after the mixing of the diluted sample with the first reagent (in other words, 2.5 and 5 minutes after the addition of the second reagent-B) is shown in Table 2.

CFP-DH4 (A1cOX) [2] = assay: HbA1c detection reaction completed with excess A1cOX (Example 4); assay type: biochemical; conditions: 0.04% (w/v) compound, 5.3 mg/ml CFP-DH4 (excess), blood cells 10.4% HbA1c, pH 6.5, 37° C.; for ΔA9 min: change in A694-A751 9 minutes after mixing sample with first reagent; for ΔA10 min: change in A694-A751 10 minutes after mixing sample with first reagent, defined as ΔA100%
Protocol: In this Example, the amount of change in absorbance when an excess amount of A1cOX is used and HbA1c detection reaction was completed is determined.
A reagent for HbA1c measurement having the following composition was prepared, and the measurement of HbA1c was carried out using Bio Majesty JCA-BMI650 (manufactured by JEOL Ltd.).
as §1, §2
0.2% (w/v) n-dodecyl-β-D-maltoside (manufactured by Dojindo Laboratories)
as §3, §4
0.04% (w/v) of the compound of Comparative Example 2 (Wako Pure Chemical Industries, Ltd.), any one compound of the present invention (all from Tokyo Chemical Industry Co., Ltd. except for Acid Yellow 34 from MP Biomedicals, LLC), or compound-free (Comparative Example 1) ion-exchange water as shown in Table 1 (Second Reagent-A) 10 mM MOPS-NaOH buffer solution, pH 6.5 5.3 mg/ml CFP-DH4 (A cOX)
8 μl of the sample diluted 51-fold with ion-exchange water was added to 96 μl of the first reagent-A, and the mixture was incubated at 37° C. for 5 minutes. Then, 24 μl of the second reagent-A was added thereto, and the quantitative reaction of hydrogen peroxide resulting from the oxidation of the β-chain amino terminus of HbA1c was allowed to progress at 37° C. for 5 minutes. The absorbance (A694 and A751) of the reaction solution for light at wavelengths of 694 nm and 751 nm was measured over time for 10 minutes after the mixing of the diluted sample with the first reagent-A to determine the value subtracting of A751 from A694, i.e., the value A694/751. Subsequently, ΔA was calculated by subtracting, from A694/751, the value of (104/128) times A694/751 4.8 minutes after mixing the diluted sample with the first reagent-A. Incidentally, 4.8 minutes after the mixing of the diluted sample with the first reagent-A represents the time immediately before the addition of the second reagent-A. ΔA 9 minutes and 10 minutes after the mixing of the diluted sample with the first reagent (ΔA9min and ΔA10min) are shown in Table 1.
In other words, it can be recognized that the quantitative reaction of HbA1c, i.e., the quantitative reaction of hydrogen peroxide resulting from the oxidation of HbA1c, was completed in 10 minutes after the mixing of the diluted sample with the first reagent-A. Accordingly, in Examples 4 and 5, ΔA10min in each Comparative Example or the present invention was defined as ΔA when 100% of the quantitative reaction of HbA1c progressed under each condition (ΔA100%).

## O=C([O-])c1cc(N=Nc2cccc([N+](=O)[O-])c2)ccc1O.[Na+] [Alizarin Yellow GG]
CFP-DH4 (A1cOX) [1]
  effect of accelerating the HbA1c detection reaction: effect of accelerating the HbA1c detection reaction
  Degree of progression of reaction (%) after 7.5 minutes: 76%
  Degree of progression of reaction (%) after 10 minutes: 91%
CFP-DH4 (A1cOX) [2]
  ΔA9 min: 0.016
  ΔA10 min: 0.016

## O=S(=O)([O-])c1cccc(N=Nc2ccc(Nc3ccccc3)cc2)c1.[Na+] [Acid Yellow 36]
CFP-DH4 (A1cOX) [1]
  effect of accelerating the HbA1c detection reaction: effect of accelerating the HbA1c detection reaction
  Degree of progression of reaction (%) after 7.5 minutes: 53%
  Degree of progression of reaction (%) after 10 minutes: 81%
CFP-DH4 (A1cOX) [2]
  ΔA9 min: 0.011
  ΔA10 min: 0.011

## COc1cc(N=Nc2cccc(S(=O)(=O)[O-])c2)ccc1NC(=O)Nc1ccc(N=Nc2ccc(O)c(C(=O)[O-])c2)cc1.[Na+].[Na+] [Direct Yellow 44]
CFP-DH4 (A1cOX) [1]
  effect of accelerating the HbA1c detection reaction: effect of accelerating the HbA1c detection reaction
  Degree of progression of reaction (%) after 7.5 minutes: 77%
  Degree of progression of reaction (%) after 10 minutes: 96%
CFP-DH4 (A1cOX) [2]
  ΔA9 min: 0.017
  ΔA10 min: 0.017

## Cc1nn(-c2cc(S(=O)(=O)[O-])ccc2Cl)c(O)c1N=Nc1ccccc1.[Na+] [Acid Yellow 34]
CFP-DH4 (A1cOX) [1]
  effect of accelerating the HbA1c detection reaction: effect of accelerating the HbA1c detection reaction
  Degree of progression of reaction (%) after 7.5 minutes: 75%
  Degree of progression of reaction (%) after 10 minutes: 95%
CFP-DH4 (A1cOX) [2]
  ΔA9 min: 0.011
  ΔA10 min: 0.011

## Xylene Fast Yellow 2G
CFP-DH4 (A1cOX) [1]
  effect of accelerating the HbA1c detection reaction: effect of accelerating the HbA1c detection reaction
  Degree of progression of reaction (%) after 7.5 minutes: 58%
  Degree of progression of reaction (%) after 10 minutes: 83%
CFP-DH4 (A1cOX) [2]
  ΔA9 min: 0.015
  ΔA10 min: 0.015

## O=C([O-])c1cc(N=Nc2ccc([N+](=O)[O-])cc2)ccc1O.[Na+] [Mordant Orange 1]
CFP-DH4 (A1cOX) [1]
  effect of accelerating the HbA1c detection reaction: effect of accelerating the HbA1c detection reaction
  Degree of progression of reaction (%) after 7.5 minutes: 80%
  Degree of progression of reaction (%) after 10 minutes: 94%
CFP-DH4 (A1cOX) [2]
  ΔA9 min: 0.016
  ΔA10 min: 0.016

## O=C(O)c1cc(N=Nc2ccc3cc(S(=O)(=O)O)ccc3c2)ccc1O.[Na] [Chrome Yellow]
CFP-DH4 (A1cOX) [1]
  effect of accelerating the HbA1c detection reaction: effect of accelerating the HbA1c detection reaction
  Degree of progression of reaction (%) after 7.5 minutes: 53%
  Degree of progression of reaction (%) after 10 minutes: 77%
CFP-DH4 (A1cOX) [2]
  ΔA9 min: 0.024
  ΔA10 min: 0.024

## Acid Red 151
CFP-DH4 (A1cOX) [1]
  effect of accelerating the HbA1c detection reaction: effect of accelerating the HbA1c detection reaction
  Degree of progression of reaction (%) after 7.5 minutes: 55%
  Degree of progression of reaction (%) after 10 minutes: 80%
CFP-DH4 (A1cOX) [2]
  ΔA9 min: 0.014
  ΔA10 min: 0.014
